According to US11926619B2, “Certain pladienolide compounds and methods of use” (EISAI R&D MANAGEMENT CO., LTD., priority 2018, dated 2024):

Tests used:
SF3b complexes = target: T1, SF3b complexes (Homo sapiens, UniProt O75533+Q7RTV0); experiment: Scintillation proximity assay (SPA) with [3H]-labelled pladienolide probe; type: binding; conditions: wt SF3B1, read-out: SPA (wt SF3B1 cells) IC50
T1 construct: endogenous in cells
Procedure: Batch immobilization of anti-SF3B1 antibody (MBL) to anti-mouse PVT SPA scintillation beads (PerkinElmer) was prepared as follows: for every 2.5 mg of nuclear extracts, 5 μg anti-SF3B1 antibody and 1.5 mg of beads were mixed in 150 μl PBS. The antibody-bead mixture was incubated for 30 min at RT and centrifuged at 18,000 g for 5 min. 150 μl PBS was used to resuspend every 1.5 mg antibody-bead mixture. The beads were suspended and added to the prepared nuclear extracts. The slurry was incubated for 2 h at 4° C. with gentle mixing. The beads were then collected by centrifuging at 18,000 g for 5 min, and washed twice with PBS+0.1% Triton X-100. After a final centrifugation step, every 1.5 mg of beads was suspended with 150 μl of PBS. The SF3b complexes were tested for [^3H]-labelled pladienolide probe binding ([^3H]-PB), synthesized as previously described (Kotake et al., 2007). 100 μL binding reactions were prepared with 50 μl bead slurry and by adding varying concentrations of PB or PB—OH, and after 30 min pre-incubation, 2.5 nM [^3H]—PB was added. The mixture was incubated for 30 min, and luminescence signals were read using a MicroBeta2 Plate Counter (PerkinElmer). Prism 6 (Graphpad) was used for non-linear regression curve fitting of the data.

[1] = test system: Panc 05.04 cells (pancreatic cancer cells; Q699H and K700E mutations in SF3B1); experiment: Cell viability assay (CellTiter-Glo, 72 hr), Panc 05.04 cells; type: cell-based; conditions: Panc 05.04 cells (mutant SF3B1); for Emax: maximum achievable response in tested dose range, negative value = cellular lethality, read-out: Panc 05.04 (mt SF3B1 cells) Emax (%); for GI50: read-out: Panc 05.04 (mt SF3B1 cells), GI50
Procedure: (§1) Cells (WiDr and Panc05.04 obtained from ATCC) were seeded in 96-well plates, with 2000 cells/100 μL/well, and incubated overnight. Spent media was removed, and fresh media containing 9 different concentrations of compound (100 μL/well) were added, with DMSO concentration from compound stock solution adjusted to be 0.1%. Each compound treatment was done in duplicate or triplicate at each concentration.
(§2) Another plate with cells seeded was dedicated as a time zero (Tz) plate, to which was added 0.1% DMSO in media (100 μL/well) followed by CellTiter-Glo® reagent (Promega Corporation, Madison, Wisconsin) (50 μL/well) for ATP measurement as a surrogate of cell viability. Average value from measurement of multiple wells of this plate is used as Tz. Compound-treated plates were incubated for 72 hr at 37° C. Then, CellTiter-Glo® reagent (50 μL/well) was added and ATP was measured. Average value from measurement of the duplicate or triplicate compound-treated wells is used as Ti, and seeded plates with medium having 0.1% DMSO without compound is used as control growth (C).
(§3) Percentage growth inhibition/Percentage viability was calculated as:
(§4) [(Ti−Tz)/(C−Tz)]×100 for concentrations for which Ti>/=Tz
(§5) [(Ti−Tz)/Tz]×100 for concentrations for which Ti<Tz.
(§6) *time zero (Tz), control growth (C), and test growth in the presence of compound (Ti) Percentage growth inhibition/Percentage viability are plotted versus compound concentration to determine Emax.
(§7) Emax refers to the maximum achievable response to a compound in a tested dose range, with a negative value indicating cellular lethality. A larger negative Emax value indicates greater cellular lethality for a particular compound.

[2] = test system: WiDr cells (colon cancer cells; wildtype SF3B1); experiment: Cell viability assay (CellTiter-Glo, 72 hr), WiDr cells; type: cell-based; conditions: Homo sapiens; WiDr cells (wildtype SF3B1); read-out: WiDr GI50
Procedure: as §1, §2, §3, §4, §5, §6
Emax refers to the maximum achievable response to a compound in a tested dose range, with a negative value indicating cellular lethality. A larger negative Emax value indicates greater cellular lethality for a particular compound. […]

[3] = test system: WiDr-R cells (colon cancer cells; chemically-induced SF3B1 R1074H mutant); experiment: Cell viability assay (CellTiter-Glo, 72 hr), resistant WiDr-R cells (counter-screen); type: cell-based; conditions: WiDr-R cells (SF3B1 R1074H mutation, resistant); read-out: WiDr-R GI50
Procedure: as §1, §2, §3, §4, §5, §6, §7
The counter-screening of compounds in this viability assay with a “resistant” WiDr-R cell line may indicate whether these compounds have off-target effect(s).

SMILES	IC50 (SF3b complexes)	Emax [1]	GI50 [1]	GI50 [2]	GI50 [3]
CC[C@H](O)[C@@H](C)[C@H]1O[C@@H]1C[C@@](C)(O)/C=C/C=C(\C)[C@H]1OC(=O)C[C@H](O)CC[C@@](C)(OC)[C@@H](OC(=O)N(C)CCNC)/C=C/[C@@H]1C	0.0183 µM	–	–	–	–
CC[C@H](O)[C@@H](C)[C@H]1O[C@@H]1C[C@@](C)(O)/C=C/C=C(\C)[C@H]1OC(=O)C[C@H](O)CC[C@@](C)(OC)[C@@H](OC(=O)N2CCN(CCCC(=O)O)CC2)/C=C/[C@@H]1C	0.0146 µM	–	–	–	–
CC[C@H](O)[C@@H](C)[C@H]1O[C@@H]1C[C@@](C)(O)/C=C/C=C(\C)[C@H]1OC(=O)C[C@H](O)CC[C@@](C)(OC(=O)N2CCNCC2)[C@@H](OC(C)=O)/C=C/[C@@H]1C	0.00592 µM	-74.2%	0.0235 µM	–	–
CC[C@H](O)[C@@H](C)[C@H]1O[C@@H]1C[C@H](C)/C=C/C=C(\C)[C@H]1OC(=O)C[C@H](O)CC[C@@](C)(OC(=O)N2CCNCC2)[C@@H](OC(C)=O)/C=C/[C@@H]1C	0.00209 µM	-78.9%	0.00086 µM	–	–
CC[C@H](O)[C@@H](C)[C@H]1O[C@@H]1C[C@@](C)(O)/C=C/C=C(\C)[C@H]1OC(=O)C[C@H](O)CC[C@@](C)(OC)[C@@H](OC(=O)N2CCNC(CCC(=O)O)C2)/C=C/[C@@H]1C (stereo partly shown)	0.0292 µM	–	–	–	–
CC[C@H](O)[C@@H](C)[C@H]1O[C@@H]1C[C@@](C)(O)/C=C/C=C(\C)[C@H]1OC(=O)C[C@H](O)CC[C@@](C)(OC(C)=O)[C@@H](OC(=O)N2CCNCC2)/C=C/[C@@H]1C	0.00878 µM	-73.2%	0.0268 µM	–	–
CC[C@H](O)[C@@H](C)[C@H]1O[C@@H]1C[C@@](C)(O)/C=C/C=C(\C)[C@H]1OC(=O)C[C@H](O)CC[C@@](C)(OC(C)=O)[C@@H](OC(=O)N2CCN(CCO)CC2)/C=C/[C@@H]1C	0.0243 µM	–	–	–	–
CC[C@H](O)[C@@H](C)[C@H]1O[C@@H]1C[C@H](C)/C=C/C=C(\C)[C@H]1OC(=O)C[C@H](O)CC[C@@](C)(OC)[C@@H](OC(=O)N2CCN(C)CC2)/C=C/[C@@H]1C	0.00152 µM	–	–	–	–
C/C(=C\C=C\[C@@H](C)c1ccccn1)[C@H]1OC(=O)C[C@H](O)CC[C@@](C)(O)[C@@H](OC(=O)N2CC[N+](C)([O-])CC2)/C=C/[C@@H]1C	0.00589 µM	-81.2%	0.0454 µM	–	–
C/C(=C\C=C\C(C)c1cccnc1)[C@H]1OC(=O)C[C@H](O)CC[C@@](C)(O)[C@@H](OC(=O)N2CCC(N3CCC(F)(F)CC3)CC2)/C=C/[C@@H]1C (stereo partly shown)	0.0309 µM	-2.9%	0.0948 µM	–	–
CC(=O)O[C@H]1/C=C/[C@H](C)[C@@H](/C(C)=C/C=C/C(c2ccccn2)C(C)C)OC(=O)C[C@H](O)CC[C@@]1(C)O (stereo partly shown)	0.0209 µM	–	–	–	–
CC[C@H](O)[C@@H](C)[C@H]1O[C@@H]1C[C@@](C)(O)/C=C/C=C(\C)[C@H]1OC(=O)C[C@H](O)CC[C@@](C)(OC(C)=O)[C@@H](OC(=O)N2C[C@@H]3C[C@H]2CN3)/C=C/[C@@H]1C	0.016 µM	–	–	–	–
C\C(=C/C=C/C=C/[C@@H](C)c1ccccn1)C1OC(=O)C[C@H](O)CC[C@@](C)(O)[C@@H](OC(=O)N2CCN(C3CCCCCC3)CC2)/C=C/[C@@H]1C (stereo partly shown)	0.12 µM	11%	0.72 µM	–	–
CC(=O)O[C@H]1/C=C/[C@H](C)[C@@H](/C(C)=C/C=C/[C@@H](C)COC(=O)N2CCSC2)OC(=O)C[C@H](O)CC[C@@]1(C)O	–	–	0.068 µM	0.0629 µM	> 1 µM
CCC(C)N(C)C(=O)OC[C@H](C)/C=C/C=C(\C)[C@H]1OC(=O)C[C@H](O)CC[C@@](C)(O)[C@@H](OC(C)=O)/C=C/[C@@H]1C (stereo partly shown)	–	–	0.587 µM	0.308 µM	> 10 µM
